Laboratory results: the supplement of paper PMC10307832

Assays:
Test in all cases: relative viability (nuclei count vs DMSO), 5 days (fraction); higher = more cells survive
SGI-1776 + Pictilisib = compound: CN1CCC(CNc2ccc3ncc(-c4cccc(OC(F)(F)F)c4)n3n2)CC1 [SGI-1776] + CS(=O)(=O)N1CCN(Cc2cc3nc(-c4cccc5[nH]ncc45)nc(N4CCOCC4)c3s2)CC1 [Pictilisib] (partner 1 µM)
Outline: (§1)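 Dosing by pin tool came one day after lung cancer cell lines were seeded in 1536-well plates, using either one drug or a fixed anchor-drug dose plus five library-drug doses (not always all listed) in √10 steps. After 5 days, nuclei were counted on 4× images. Relative viability is treated-well nuclei count divided by vehicle-well nuclei count, and values are medians of duplicate plates.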

Entinostat + Alpelisib = compound: Nc1ccccc1NC(=O)c1ccc(CNC(=O)OCc2cccnc2)cc1 [Entinostat] + Cc1nc(NC(=O)N2CCC[C@H]2C(N)=O)sc1-c1ccnc(C(C)(C)C(F)(F)F)c1 [Alpelisib] (partner 2 µM)
Outline: as §1

SGI-1776 + Foretinib = compound: CN1CCC(CNc2ccc3ncc(-c4cccc(OC(F)(F)F)c4)n3n2)CC1 [SGI-1776] + COc1cc2c(Oc3ccc(NC(=O)C4(C(=O)Nc5ccc(F)cc5)CC4)cc3F)ccnc2cc1OCCCN1CCOCC1 [Foretinib] (partner 0.25 µM)
Outline: as §1

[1] = compound: C1COCCN1C2=NC(=NC3=C2OC4=C3C=CC=N4)C5=CC(=CC=C5)NC(=O)C6=CN=C(C=C6)N + Nc1nc2[nH]cc(CCc3ccc(C(=O)N[C@@H](CCC(=O)O)C(=O)O)cc3)c2c(=O)[nH]1 [Pemetrexed] (partner 0.2 µM)
Outline: as §1

Row | Cell Line | relative viability (SGI-1776 + Pictilisib; first compound 0.08 µM) | relative viability (SGI-1776 + Pictilisib; first compound 0.8 µM) | relative viability (SGI-1776 + Pictilisib; first compound 2.53 µM) | relative viability (SGI-1776 + Pictilisib; first compound 8 µM) | relative viability (Entinostat + Alpelisib; first compound 0.02 µM) | relative viability (Entinostat + Alpelisib; first compound 0.06325 µM) | relative viability (Entinostat + Alpelisib; first compound 0.2 µM) | relative viability (Entinostat + Alpelisib; first compound 0.6325 µM) | relative viability (Entinostat + Alpelisib; first compound 2 µM) | relative viability (SGI-1776 + Foretinib; first compound 0.08 µM) | relative viability (SGI-1776 + Foretinib; first compound 0.8 µM) | relative viability (SGI-1776 + Foretinib; first compound 2.53 µM) | relative viability (SGI-1776 + Foretinib; first compound 8 µM) | relative viability ([1]; first compound 0.02 µM) | relative viability ([1]; first compound 0.06325 µM) | relative viability ([1]; first compound 0.2 µM) | relative viability ([1]; first compound 0.6325 µM) | relative viability ([1]; first compound 2 µM)
1 | 201T | 0.7 | 0.718 | 0.687 | 0.6 | 1.01 | 1.08 | 1.02 | 0.859 | 0.525 | 1.13 | 1.09 | 1.03 | 1.02 | 0.285 | 0.301 | 0.307 | 0.38 | 0.34
2 | A549 | 0.566 | 0.513 | 0.392 | 0.267 | 0.851 | 0.729 | 0.704 | 0.515 | 0.238 | 1.07 | 0.891 | 0.752 | 0.277 |  |  |  |  | 
3 | A-427 | 0.704 | 0.694 | 0.824 | 0.657 | 1.01 | 1.1 | 1.05 | 0.943 | 0.845 | 1.15 | 1.17 | 0.972 | 0.983 | 1 | 0.985 | 0.944 | 0.914 | 0.739
4 | ABC-1 | 0.675 | 0.666 | 0.745 | 0.66 | 0.949 | 1.14 | 0.966 | 0.661 | 0.48 | 1.06 | 0.974 | 0.984 | 0.64 |  |  |  |  | 
5 | BEN | 0.736 | 0.643 | 0.504 | 0.396 | 1.21 | 0.944 | 1.02 | 0.6 | 0.275 | 0.72 | 0.623 | 0.472 | 0.552 | 0.737 | 0.795 | 0.584 | 0.693 | 0.665
6 | CAL-12T | 0.559 | 0.592 | 0.341 | 0.385 | 1.22 | 1.18 | 1.41 | 1.08 | 0.962 | 1.21 | 1.08 | 1.25 | 0.577 | 1.2 | 1.27 | 1.17 | 1.32 | 0.412
7 | COR-L23 | 0.916 | 0.868 | 0.821 | 0.667 | 0.658 | 0.632 | 0.547 | 0.321 | 0.175 | 0.976 | 0.92 | 1.02 | 0.931 | 0.202 | 0.204 | 0.194 | 0.162 | 0.167
8 | COR-L 105 | 0.409 | 0.389 | 0.342 | 0.308 | 0.842 | 0.925 | 0.844 | 0.608 | 0.345 | 0.857 | 1.1 | 0.72 | 0.734 | 1.13 | 1.25 | 0.967 | 1.16 | 0.642
9 | Calu-6 | 0.974 | 0.911 | 0.808 | 0.482 | 1.01 | 1.06 | 0.941 | 0.624 | 0.457 | 0.91 | 0.88 | 0.875 | 0.344 |  |  |  |  | 
10 | ChaGo-K-1 | 0.699 | 0.844 | 0.49 | 0.415 |  |  |  |  |  | 0.834 | 0.96 | 0.993 | 0.741 | 0.271 | 0.256 | 0.251 | 0.237 | 0.237
11 | EBC-1 | 0.436 | 0.374 | 0.299 | 0.15 | 0.832 | 0.984 | 0.542 | 0.179 | 0.116 | 0.0952 | 0.0955 | 0.127 | 0.0874 |  |  |  |  | 
12 | EKVX | 0.421 | 0.453 | 0.455 | 0.379 | 0.942 | 0.989 | 0.771 | 0.48 | 0.317 | 1.36 | 0.837 | 0.863 | 0.749 | 0.436 | 0.396 | 0.486 | 0.382 | 0.323
13 | EMC-BAC-2 | 0.539 | 0.555 | 0.567 | 0.485 | 0.797 | 0.795 | 0.776 | 0.636 | 0.394 | 1.02 | 0.99 | 1.11 | 0.846 | 0.458 | 0.462 | 0.465 | 0.462 | 0.444
14 | EPLC-272H | 0.315 | 0.318 | 0.188 | 0.259 | 0.955 | 0.998 | 0.795 | 0.526 | 0.38 | 0.82 | 0.66 | 0.768 | 0.528 | 0.301 | 0.318 | 0.272 | 0.298 | 0.319
15 | H3255 | 0.479 | 0.451 | 0.456 | 0.392 | 0.637 | 0.594 | 0.548 | 0.363 | 0.289 | 1.02 | 0.994 | 0.801 | 0.864 | 0.507 | 0.558 | 0.528 | 0.524 | 0.491
16 | HARA | 0.445 | 0.373 | 0.306 | 0.243 | 0.819 | 0.861 | 0.658 | 0.582 | 0.484 | 1.04 | 0.946 | 0.718 | 0.913 | 0.253 | 0.261 | 0.204 | 0.246 | 0.141
17 | HCC-15 | 0.657 | 0.839 | 0.665 | 0.468 | 0.86 | 0.919 | 0.705 | 0.488 | 0.243 | 0.989 | 1.07 | 1.04 | 0.824 | 0.225 | 0.228 | 0.217 | 0.218 | 0.242
18 | HCC-44 | 0.662 | 0.589 | 0.653 | 0.42 | 0.778 | 0.588 | 0.46 | 0.329 | 0.187 |  |  |  |  | 0.616 | 0.639 | 0.676 | 0.682 | 0.653
19 | HCC-78 | 0.27 | 0.231 | 0.199 | 0.164 | 0.342 | 0.32 | 0.238 | 0.133 | 0.104 | 0.553 | 0.566 | 0.595 | 0.606 | 0.913 | 0.944 | 0.926 | 0.929 | 0.64
